# Reference: patent US20250034159A1, “INHIBITORS OF EPIDERMAL GROWTH FACTOR RECEPTOR” (ORIC Pharmaceuticals, Inc., priority 2021, published 2025)
# Read-outs that look alike come from different tables or passages of the source.
# What was measured:
# [1] = target: recombinant human EGFR exon 19 deletion/C797S double mutant protein (Homo sapiens (Human), UniProt P00533, C797S/DEL746-750); assay: Biological Activity Assay C: biochemical assay against EGFR exon 19 deletion/C797S protein (EGFR d19/CS)
# Sequence of recombinant human EGFR exon 19 deletion/C797S double mutant protein (P00533 other isoform, or with tags, fused parts or gaps C797S/del 1-668/del 746-750 limits assumed): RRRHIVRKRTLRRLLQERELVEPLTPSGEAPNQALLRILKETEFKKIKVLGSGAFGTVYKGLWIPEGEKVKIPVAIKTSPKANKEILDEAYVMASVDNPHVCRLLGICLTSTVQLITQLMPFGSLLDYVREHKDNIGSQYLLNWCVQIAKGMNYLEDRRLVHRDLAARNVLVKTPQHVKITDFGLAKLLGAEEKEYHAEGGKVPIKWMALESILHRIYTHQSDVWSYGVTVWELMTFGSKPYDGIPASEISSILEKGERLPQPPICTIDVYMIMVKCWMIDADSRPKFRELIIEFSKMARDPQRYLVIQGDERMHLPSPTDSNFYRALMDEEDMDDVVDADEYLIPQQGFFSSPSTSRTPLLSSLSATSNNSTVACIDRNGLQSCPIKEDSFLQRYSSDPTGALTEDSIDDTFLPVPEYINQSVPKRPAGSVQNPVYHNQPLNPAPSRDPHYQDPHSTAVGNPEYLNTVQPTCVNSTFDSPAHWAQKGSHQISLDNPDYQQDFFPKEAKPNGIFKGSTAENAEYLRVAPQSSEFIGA
# Outline: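 Compounds were tested as 16-point serial dilutions (final DMSO 2.5%) with a Phosphosens peptide sensor/ATP working solution (40 uM/4 mM). The signal was read kinetically over 90 cycles at 120 s intervals. IC50s came from 4-parameter fits of per-well slopes.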
# Ba/F3_EGFR WT cells = assay: Biological Activity Assay D: BaF3 cell proliferation assay, EGFR wild-type (BaF3 WT); assay type: cell-based; conditions: Ba/F3 EGFR, read-out: BaF3 WT IC50
# BaF3_EGFR LR/CS cells = assay: Biological Activity Assay D: BaF3 cell proliferation assay, EGFR L858R/C797S mutant (BaF3 LR/CS); assay type: cell-based; conditions: Ba/F3 EGFR, read-out: BaF3 LR/CS IC50
# BaF3_EGFR d19/CS cells = assay: Biological Activity Assay D: BaF3 cell proliferation assay, EGFR exon 19 deletion/C797S (BaF3 d19/CS); assay type: cell-based; conditions: Ba/F3 EGFR, read-out: BaF3 d19/CS IC50
# [2] = Ba/F3_EGFR WT cells, ~72 hours, CellTiter-Glo
# [3] = BaF3_EGFR LR/CS cells, ~72 hours, CellTiter-Glo
# [4] = BaF3_EGFR d19/CS cells, ~72 hours, CellTiter-Glo
SMILES,IC50 [1],IC50 (Ba/F3_EGFR WT cells; [2]),IC50 (BaF3_EGFR LR/CS cells; [3]),IC50 (BaF3_EGFR d19/CS cells; [4]),IC50 (Ba/F3_EGFR WT cells; 72 h),IC50 (BaF3_EGFR LR/CS cells; 72 h),IC50 (BaF3_EGFR d19/CS cells; 72 h)
"CCn1cc(-c2ncnc3oc(-c4ccccc4)cc23)c(-c2ccc(F)cc2)n1 [Example 179, 4-[1-ethyl-3-(4-fluorophenyl)-1H-pyrazol-4-yl]-6-phenylfuro[2,3-d]pyrimidine]",0.39 nM,–,–,–,2200 nM,17.2 nM,41 nM
"O=C(c1ccccc1)N1CC=C(c2cc3c(-c4cn(C5CS(=O)(=O)C5)nc4-c4ccc(F)cc4)ncnc3o2)CC1 [Example 180, 3-{4-[6-(1-benzoyl-1,2,3,6-tetrahydropyridin-4-yl)furo[2,3-d]pyrimidin-4-yl]-3-(4-fluorophenyl)-1H-pyrazol-1-yl}-1λ6-thietane-1,1-dione]",0.39 nM,2920 nM,128 nM,161 nM,–,–,–
"Fc1ccc(-c2nn([C@@H]3C[C@H]4CC[C@@H](C3)O4)cc2-c2ncnc3oc(-c4ccccc4)cc23)cc1 [Example 186, 4-{3-(4-fluorophenyl)-1-[(1R,3s,5S)-8-oxabicyclo[3.2.1]octan-3-yl]-1H-pyrazol-4-yl}-6-phenylfuro[2,3-d]pyrimidine]",0.63 nM,4450 nM,186 nM,348 nM,–,–,–
"C[C@@H]1C[C@@H](n2cc(-c3ncnc4oc(-c5ccccc5)cc34)c(-c3ccc(F)cc3)n2)CN1S(C)(=O)=O [Example 189, 4-{3-(4-fluorophenyl)-1-[(3R,5R)-1-(methanesulfonyl)-5-methylpyrrolidin-3-yl]-1H-pyrazol-4-yl}-6-phenylfuro[2,3-d]pyrimidine]",0.26 nM,132 nM,5.51 nM,5.86 nM,–,–,–
"O=S1(=O)CC(n2cc(-c3ncnc4oc(-c5cccc(CN6CCOCC6)c5)cc34)c(-c3ccc(F)cc3)n2)C1 [Example 190, 3-[3-(4-fluorophenyl)-4-(6-{3-[(morpholin-4-yl)methyl]phenyl}furo[2,3-d]pyrimidin-4-yl)-1H-pyrazol-1-yl]-16-thietane-1,1-dione]",0.18 nM,2160 nM,64 nM,59.1 nM,–,–,–
"CC(=O)N1CC=C(c2nc3c(-c4cn(C5CS(=O)(=O)C5)nc4-c4ccc(F)cc4)ncnc3[nH]2)CC1 [Example 191, 3-{4-[8-(1-acetyl-1,2,3,6-tetrahydropyridin-4-yl)-9H-purin-6-yl]-3-(4-fluorophenyl)-1H-pyrazol-1-yl}-1λ6-thietane-1,1-dione]",0.65 nM,> 20000 nM,> 20000 nM,> 20000 nM,–,–,–
"CS(=O)(=O)[C@H]1C[C@H](n2cc(-c3ncnc4oc(-c5ccccc5)cc34)c(-c3ccc(F)cc3)n2)C1 [Example 194, 4-{3-(4-fluorophenyl)-1-[(1r,3r)-3-(methanesulfonyl)cyclobutyl]-1H-pyrazol-4-yl}-6-phenylfuro[2,3-d]pyrimidine]",0.83 nM,3610 nM,175 nM,274 nM,–,–,–
"C[C@H]1C[C@H](n2cc(-c3ncnc4oc(-c5ccccc5)cc34)c(-c3ccc(F)cc3)n2)CN1S(C)(=O)=O [Example 197, 4-{3-(4-fluorophenyl)-1-[(3S,5S)-1-(methanesulfonyl)-5-methylpyrrolidin-3-yl]-1H-pyrazol-4-yl}-6-phenylfuro[2,3-d]pyrimidine]",0.45 nM,139 nM,12.8 nM,46.5 nM,–,–,–
"C[C@H]1C[C@@H](n2cc(-c3ncnc4oc(-c5ccccc5)cc34)c(-c3ccc(F)cc3)n2)CN1S(C)(=O)=O [Example 198, 4-{3-(4-fluorophenyl)-1-[(3R,5S)-1-(methanesulfonyl)-5-methylpyrrolidin-3-yl]-1H-pyrazol-4-yl}-6-phenylfuro[2,3-d]pyrimidine]",0.72 nM,703 nM,17.9 nM,51.9 nM,–,–,–
"Cn1cnc(-c2cc3c(-c4cn(C5CS(=O)(=O)C5)nc4-c4ccc(F)cc4)ncnc3o2)c1 [Example 200, 3-{3-(4-fluorophenyl)-4-[6-(1-methyl-1H-imidazol-4-yl)furo[2,3-d]pyrimidin-4-yl]-1H-pyrazol-1-yl}-16-thietane-1,1-dione]",0.13 nM,–,–,–,412 nM,5.04 nM,8.78 nM
"CC1(C)CC(n2cc(-c3ncnc4oc(-c5ccccc5)cc34)c(-c3ccc(F)cc3)n2)CCO1 (centres unmarked) [Example 202, 4-[1-(2,2-dimethyloxan-4-yl)-3-(4-fluorophenyl)-1H-pyrazol-4-yl]-6-phenylfuro[2,3-d]pyrimidine]",1.48 nM,2350 nM,219 nM,512 nM,–,–,–
"Fc1ccc(-c2nn(CC3CCC(F)(F)CC3)cc2-c2ncnc3oc(-c4ccccc4)cc23)cc1 [Example 204, 4-{1-[(4,4-difluorocyclohexyl)methyl]-3-(4-fluorophenyl)-1H-pyrazol-4-yl}-6-phenylfuro[2,3-d]pyrimidine]",10.2 nM,8130 nM,288 nM,1220 nM,–,–,–

# The next lines start with results.
IC50 [1],IC50 (Ba/F3_EGFR WT cells; [2]),IC50 (BaF3_EGFR LR/CS cells; [3]),IC50 (BaF3_EGFR d19/CS cells; [4]),SMILES,IC50 (Ba/F3_EGFR WT cells; 72 h),IC50 (BaF3_EGFR LR/CS cells; 72 h),IC50 (BaF3_EGFR d19/CS cells; 72 h)
0.36 nM,2540 nM,134 nM,140 nM,"NC(=O)c1cccc(-c2cc3c(-c4cn(C5CS(=O)(=O)C5)nc4-c4ccc(F)cc4)ncnc3o2)c1 [Example 176, 3-{4-[1-(1,1-dioxo-1λ6-thietan-3-yl)-3-(4-fluorophenyl)-1H-pyrazol-4-yl]furo[2,3-d]pyrimidin-6-yl}benzamide]",–,–,–
2.27 nM,5200 nM,89.7 nM,187 nM,"O=S1(=O)CC(n2cc(-c3ncnc4oc(-c5cccc(C6CC6)c5)cc34)c(-c3ccc(F)cc3)n2)C1 [Example 178, 3-{4-[6-(3-cyclopropylphenyl)furo[2,3-d]pyrimidin-4-yl]-3-(4-fluorophenyl)-1H-pyrazol-1-yl}-16-thietane-1,1-dione]",–,–,–
0.27 nM,2110 nM,79.3 nM,97 nM,"CS(=O)(=O)N1CC=C(c2cc3c(-c4cn(C5CS(=O)(=O)C5)nc4-c4ccc(F)cc4)ncnc3o2)CC1 [Example 181, 3-[3-(4-fluorophenyl)-4-{6-[1-(methanesulfonyl)-1,2,3,6-tetrahydropyridin-4-yl]furo[2,3-d]pyrimidin-4-yl}-1H-pyrazol-1-yl]-1λ6-thietane-1,1-dione]",–,–,–
1.65 nM,> 20000 nM,444 nM,392 nM,"O=S1(=O)CC(n2cc(-c3ncnc4oc(-c5ccccc5C(F)(F)F)cc34)c(-c3ccc(F)cc3)n2)C1 [Example 182, 3-[3-(4-fluorophenyl)-4-{6-[2-(trifluoromethyl)phenyl]furo[2,3-d]pyrimidin-4-yl}-1H-pyrazol-1-yl]-1λ6-thietane-1,1-dione]",–,–,–
0.14 nM,5420 nM,145 nM,146 nM,"NC(=O)c1ccccc1-c1cc2c(-c3cn(C4CS(=O)(=O)C4)nc3-c3ccc(F)cc3)ncnc2o1 [Example 183, 2-{4-[1-(1,1-dioxo-1λ6-thietan-3-yl)-3-(4-fluorophenyl)-1H-pyrazol-4-yl]furo[2,3-d]pyrimidin-6-yl}benzamide]",–,–,–
3.36 nM,9020 nM,1240 nM,589 nM,"O=S1(=O)CC(n2cc(-c3ncnc4oc(-c5cccnn5)cc34)c(-c3ccc(F)cc3)n2)C1 [Example 187, 3-{3-(4-fluorophenyl)-4-[6-(pyridazin-3-yl)furo[2,3-d]pyrimidin-4-yl]-1H-pyrazol-1-yl}-1λ6-thietane-1,1-dione]",–,–,–
2.23 nM,11700 nM,489 nM,246 nM,"O=S1(=O)CC(n2cc(-c3ncnc4oc(-c5cnccn5)cc34)c(-c3ccc(F)cc3)n2)C1 [Example 188, 3-{3-(4-fluorophenyl)-4-[6-(pyrazin-2-yl)furo[2,3-d]pyrimidin-4-yl]-1H-pyrazol-1-yl}-1λ6-thietane-1,1-dione]",–,–,–
6.89 nM,6000 nM,799 nM,365 nM,"O=S1(=O)CC(n2cc(-c3ncnc4oc(-c5ncccn5)cc34)c(-c3ccc(F)cc3)n2)C1 [Example 195, 3-{3-(4-fluorophenyl)-4-[6-(pyrimidin-2-yl)furo[2,3-d]pyrimidin-4-yl]-1H-pyrazol-1-yl}-1λ6-thietane-1,1-dione]",–,–,–
0.89 nM,1740 nM,212 nM,133 nM,"O=S1(=O)CC(n2cc(-c3ncnc4oc(-c5ccncn5)cc34)c(-c3ccc(F)cc3)n2)C1 [Example 196, 3-{3-(4-fluorophenyl)-4-[6-(pyrimidin-4-yl)furo[2,3-d]pyrimidin-4-yl]-1H-pyrazol-1-yl}-1λ6-thietane-1,1-dione]",–,–,–
0.52 nM,1580 nM,200 nM,142 nM,"Cn1ccnc1-c1cc2c(-c3cn(C4CS(=O)(=O)C4)nc3-c3ccc(F)cc3)ncnc2o1 [Example 201, 3-{3-(4-fluorophenyl)-4-[6-(1-methyl-1H-imidazol-2-yl)furo[2,3-d]pyrimidin-4-yl]-1H-pyrazol-1-yl}-1λ6-thietane-1,1-dione]",–,–,–
0.14 nM,289 nM,10.6 nM,17.1 nM,"CN(c1cccc(-c2cc3c(-c4cn(C5CS(=O)(=O)C5)nc4-c4ccc(F)cc4)ncnc3o2)c1)S(C)(=O)=O [Example 203, N-(3-{4-[1-(1,1-dioxo-1λ6-thietan-3-yl)-3-(4-fluorophenyl)-1H-pyrazol-4-yl]furo[2,3-d]pyrimidin-6-yl}phenyl)-N-methylmethanesulfonamide]",–,–,–
